Key:
[1] = system: Ramos cells; experiment: Cytotoxicity (cell death) in Ramos cells; assay type: cell-based
Description: (§1) The compounds listed in Table 9 were tested for activity against F1F0-ATPase by measuring ATP synthesis and ATP hydrolysis. In addition, the compounds were assessed for cytotoxicity in Ramos cells Inhibition of ATP synthesis and hydrolysis by the F1F0-ATPase and cytotoxicity in Ramos cells was measured as described in K. M. Johnson et al. Chemistry & Biology 2005, 12, 485-496.

[2] = target: T1, F1F0-ATPase (Bos taurus, UniProt P13621); experiment: Inhibition of ATP synthesis by the F1F0-ATPase; assay type: biochemical; details: for ATP Synthesis (IC40 μM): IC40: concentration for 40% inhibition
Description: as §1

[3] = target: T1, F1F0-ATPase; experiment: Inhibition of ATP hydrolysis by the F1F0-ATPase; assay type: biochemical; details: for ATP Hydrolysis (IC40 μM): IC40: concentration for 40% inhibition
Description: as §1

SMILES | EC50 ([1]; Ramos cells) | ATP Synthesis (IC40 μM) [2] | ATP Hydrolysis (IC40 μM) [3] | EC50 ([1]; Homo sapiens, Ramos) | Ramos cell death (relative to Bz-423) ([1]; Ramos cells, multiple of Bz-423) | syn (relative to Bz-423) ([2]; ATP synthesis, multiple of Bz-423) | hydro (relative to Bz-423) ([3]; ATP hydrolysis, multiple of Bz-423)
O=C(N=C(NCCc1c[nH]cn1)Nc1ccccc1-c1ccccc1)c1cccc(Cl)c1 [Compound I-8, (Z/E)-N-((2-(1H-imidazol-4-yl)ethylamino)(biphenyl-2-ylamino)methylene)-3-chlorobenzamide] | > 20 µM | >10 µM | >10 µM | – | – | – | –
COc1cccc(-c2ccc(NC(=NC(=O)c3cccc(Cl)c3)NCCc3c[nH]cn3)cc2)c1 [III-34, (Z/E)-N-((2-(1H-imidazol-4-yl)ethylamino)(3′-methoxybiphenyl-4-ylamino)methylene)-3-chlorobenzamide] | < 10 µM | <10 µM | >10 µM | – | – | – | –
O=C(N=C(NCCc1c[nH]cn1)Nc1ccc(-c2ccccc2)cc1)c1cccc(Cl)c1 [III-7, (Z/E)-N-((2-(1H-imidazol-4-yl)ethylamino)(biphenyl-4-ylamino)methylene)-3-chlorobenzamide] | < 10 µM | <10 µM | >10 µM | – | – | – | –
O=C(/N=C(/NCCc1c[nH]cn1)Nc1cccc2cc[nH]c12)c1cccc(Cl)c1 [Compound V-4, (Z/E)-N-((2-(1H-imidazol-4-yl)ethylamino)(1H-indol-7-ylamino)methylene)-3-chlorobenzamide] | – | >10 µM | >10 µM | > 30 µM | – | – | –
CN(C)S(=O)(=O)c1ccc(NC(=NC(=O)c2cccc(Cl)c2)NCCc2cnc[nH]2)cc1 [III-39, (Z/E)-N-((2-(1H-imidazol-5-yl)ethylamino)(4-(N,N-dimethylsulfamoyl)phenylamino)methylene)-3-chlorobenzamide] | > 30 µM | >20 µM | >30 µM | – | – | – | –
O=C(N=C(NCCc1c[nH]cn1)Nc1ccccc1F)c1cccc(Cl)c1 [III-14, (Z/E)-N-((2-(1H-imidazol-4-yl)ethylamino)(2-fluorophenylamino)methylene)-3-chlorobenzamide] | > 30 µM | >20 µM | >30 µM | – | – | – | –
O=C(N=C(NCCc1c[nH]cn1)Nc1cccc(-c2ccccc2)c1)c1ccc(F)cc1 [VI-8, (Z/E)-N-((2-(1H-imidazol-4-yl)ethylamino)(biphenyl-3-ylamino)methylene)-4-fluorobenzamide] | > 10 µM | <10 µM | >10 µM | – | – | – | –
O=C(N=C(NCCc1c[nH]cn1)Nc1ccccc1C(F)(F)F)c1cccc(Cl)c1 [III-23, (Z/E)-N-((2-(1H-imidazol-4-yl)ethylamino)(2-(trifluoromethyl)phenylamino)methylene)-3-chlorobenzamide] | > 20 µM | >20 µM | >20 µM | – | – | – | –
O=C(N=C(NCCc1c[nH]cn1)Nc1cccc(-c2ccccc2)c1)c1ccc(C(F)(F)F)cc1 [VI-4, (Z/E)-N-((2-(1H-imidazol-4-yl)ethylamino)(biphenyl-3-ylamino)methylene)-4-(trifluoromethyl)benzamide] | > 10 µM | <10 µM | >10 µM | – | – | – | –
O=C(N=C(NCCc1c[nH]cn1)Nc1cccc(-c2ccccc2)c1)c1cccc(F)c1 [VI-7, (Z/E)-N-((2-(1H-imidazol-4-yl)ethylamino)(biphenyl-3-ylamino)methylene)-3-fluorobenzamide] | > 10 µM | <10 µM | >10 µM | – | – | – | –
O=C(N=C(NCCc1c[nH]cn1)Nc1cccc(-c2ccccc2)c1)c1ccc(Br)cc1 [VI-11, (Z/E)-N-((2-(1H-imidazol-4-yl)ethylamino)(biphenyl-3-ylamino)methylene)-4-bromobenzamide] | < 10 µM | <10 µM | >10 µM | – | – | – | –
O=C(/N=C(/NCCc1c[nH]cn1)Nc1cccc2[nH]ccc12)c1cccc(Cl)c1 [Compound V-1, (Z/E)-N-((2-(1H-imidazol-4-yl)ethylamino)(1H-indol-4-ylamino)methylene)-3-chlorobenzamide] | – | >10 µM | >10 µM | > 30 µM | – | – | –
C[C@H](Cc1c[nH]cn1)N/C(=N/C(=O)c1cccc(Cl)c1)Nc1ccc(-c2ccccc2)cc1 [IV-6, (R,Z/E)-N-((1-(1H-imidazol-4-yl)propan-2-ylamino)(biphenyl-4-ylamino)methylene)-3-chlorobenzamide] | – | <10 µM | <10 µM | < 10 µM | – | – | –
Cc1cccc(C(=O)N=C(NCCc2c[nH]cn2)Nc2cccc(-c3ccccc3)c2)c1 [VI-2, (Z/E)-N-((2-(1H-imidazol-4-yl)ethylamino)(biphenyl-3-ylamino)methylene)-3-methylbenzamide] | > 10 µM | <10 µM | >10 µM | – | – | – | –
O=C(N=C(NCCc1c[nH]cn1)Nc1cccc(-c2ccccc2)c1)c1ccc(Cl)c(Cl)c1 [VI-9, (Z/E)-N-((2-(1H-imidazol-4-yl)ethylamino)(biphenyl-3-ylamino)methylene)-3,4-dichlorobenzamide] | < 10 µM | <10 µM | <10 µM | – | – | – | –
N#Cc1ccc(C(=O)N=C(NCCc2c[nH]cn2)Nc2ccc(-c3ccccc3)cc2)cc1 [II-7, (Z/E)-N-((2-(1H-imidazol-4-yl)ethylamino)(biphenyl-4-ylamino)methylene)-4-cyanobenzamide] | > 30 µM | >20 µM | >10 µM | – | – | – | –
COc1cccc(NC(=NC(=O)c2cccc(Cl)c2)NCCc2c[nH]cn2)c1 [III-12, (Z/E)-N-((2-(1H-imidazol-4-yl)ethylamino)(3-methoxyphenylamino)methylene)-3-chlorobenzamide] | > 30 µM | >20 µM | >30 µM | – | – | – | –
O=C(/N=C(/NCCc1c[nH]cn1)Nc1ccc2cc[nH]c2c1)c1cccc(Cl)c1 [Compound V-3, (Z/E)-N-((2-(1H-imidazol-4-yl)ethylamino)(1H-indol-6-ylamino)methylene)-3-chlorobenzamide] | – | >10 µM | <10 µM | > 20 µM | – | – | –
O=C(/N=C(/NCCc1nc[nH]n1)Nc1ccc(-c2ccccc2)cc1)c1cccc(Cl)c1 [IV-3, (Z/E)-N-((2-(1H-1,2,4-triazol-3-yl)ethylamino)(biphenyl-4-ylamino)methylene)-3-chlorobenzamide] | – | <10 µM | <10 µM | > 10 µM | – | – | –
O=C(N=C(NCCc1c[nH]cn1)Nc1ccccc1Br)c1cccc(Cl)c1 [III-2, (Z/E)-N-((2-(1H-imidazol-4-yl)ethylamino)(2-bromophenylamino)methylene)-3-chlorobenzamide] | > 20 µM | <10 µM | >20 µM | – | – | – | –
O=C(/N=C(/NCCc1c[nH]cn1)Nc1ccc2[nH]ccc2c1)c1cccc(Cl)c1 [Compound V-2, (Z/E)-N-((2-(1H-imidazol-4-yl)ethylamino)(1H-indol-5-ylamino)methylene)-3-chlorobenzamide] | – | >10 µM | >20 µM | > 20 µM | – | – | –
COc1ccc(-c2ccc(NC(=NC(=O)c3cccc(Cl)c3)NCCc3c[nH]cn3)cc2)cc1 [III-35, (Z/E)-N-((2-(1H-imidazol-4-yl)ethylamino)(4′-methoxybiphenyl-4-ylamino)methylene)-3-chlorobenzamide] | < 10 µM | <10 µM | >10 µM | – | – | – | –
O=C(N=C(NCCc1c[nH]cn1)Nc1ccc(-c2ccccc2)cc1)c1cccc(C(F)(F)F)c1 [II-4, (Z/E)-N-((2-(1H-imidazol-4-yl)ethylamino)(biphenyl-4-ylamino)methylene)-3-(trifluoromethyl)benzamide] | < 10 µM | >10 µM | >10 µM | – | – | – | –
O=C(N=C(NCCc1c[nH]cn1)Nc1ccc(-c2ccccc2)cc1)c1cccc(Br)c1 [II-10, (Z/E)-N-((2-(1H-imidazol-4-yl)ethylamino)(biphenyl-4-ylamino)methylene)-3-bromobenzamide] | < 10 µM | >10 µM | >10 µM | – | – | – | –
O=C(/N=C(\Nc1ccc(-c2ccccc2)cc1)Nc1cccc2[nH]ccc12)c1cccc(Cl)c1 [IV-1, (Z/E)-N-((1H-indol-4-ylamino)(biphenyl-4-ylamino)methylene)-3-chlorobenzamide] | – | >10 µM | >30 µM | > 10 µM | – | – | –
O=C(N=C(NCCc1c[nH]cn1)Nc1ccc(Br)cc1)c1cccc(Cl)c1 [III-20, (Z/E)-N-((2-(1H-imidazol-4-yl)ethylamino)(4-bromophenylamino)methylene)-3-chlorobenzamide] | > 10 µM | >10 µM | >10 µM | – | – | – | –
O=C(N=C(NCCc1c[nH]cn1)Nc1cccc(-c2ccccc2)c1)c1ccc(Cl)cc1 [VI-14, (Z/E)-N-((2-(1H-imidazol-4-yl)ethylamino)(biphenyl-3-ylamino)methylene)-4-chlorobenzamide] | > 10 µM | <10 µM | >10 µM | – | – | – | –
CCc1cccc(CC)c1NC(=NC(=O)c1cccc(Cl)c1)NCCc1c[nH]cn1 [III-44, (Z/E)-N-((2-(1H-imidazol-4-yl)ethylamino)(2,6-diethylphenylamino)methylene)-3-chlorobenzamide] | – | – | – | – | 2.5 ×Bz-423 | 0.7 ×Bz-423 | 0.8 ×Bz-423

— patent publication US8324258B2, “F1F0-ATPase inhibitors and related methods” (The Regents of the University of Michigan, priority 2007, dated 2012)
